Our source for the inhibition values is article PMC8146939 (Biomedicines, 2021).

The assay addresses T1, GIRK2 (Homo sapiens, UniProt P48051).
T1 construct: gene KCNJ6; homotetramer GIRK2
T1 sequence (P48051 1-423): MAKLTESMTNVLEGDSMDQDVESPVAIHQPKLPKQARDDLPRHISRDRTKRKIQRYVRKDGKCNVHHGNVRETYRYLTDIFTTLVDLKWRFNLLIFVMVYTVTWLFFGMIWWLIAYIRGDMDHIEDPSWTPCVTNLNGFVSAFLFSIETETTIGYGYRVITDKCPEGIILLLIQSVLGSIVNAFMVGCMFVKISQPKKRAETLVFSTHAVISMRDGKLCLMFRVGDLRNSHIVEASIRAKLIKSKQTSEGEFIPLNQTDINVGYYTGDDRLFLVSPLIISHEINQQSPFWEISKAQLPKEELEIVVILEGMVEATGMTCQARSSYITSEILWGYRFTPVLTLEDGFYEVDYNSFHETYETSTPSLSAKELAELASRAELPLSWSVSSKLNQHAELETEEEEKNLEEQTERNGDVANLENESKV
In words: two-electrode voltage clamp in Xenopus oocytes expressing homotetrameric GIRK2, single concentration […]. Conditions: read-out: % reduction in inward K+ currents at 10 μM. It is filed as cell-based. (In two-electrode clamp one electrode senses voltage and the other passes current.)

Turning to `Cc1c(C(=O)c2cccc3ccccc23)c2cccc3c2n1[C@H](CN1CCOCC1)CO3` [WIN55,212-2], the inhibition at 10 µM was found to be 8.91 ± 1.68%.
